This passage reports IC50 results from ChEMBL document CHEMBL4673364, “Synthesis and cytotoxic activity of new 7-acetoxy-12-amino-14-deoxy andrographolide analogues” (Bioorg Med Chem Lett, 2021).

What all share (type): functional, cell-based
For one experiment, the system named is A549. As to the kind of experiment: Cytotoxicity against human A549 cells assessed as reduction in cell viability by SRB assay. On the technique in general: The SRB assay estimates cell density from bound dye.
Experiment [1] is described as follows: Cytotoxicity against rat ASK cells assessed as reduction in cell viability by SRB assay.
Experiment [2] is described as follows: Cytotoxicity against human K213 cells assessed as reduction in cell viability by SRB assay.
Experiment [3] in a line: Cytotoxicity against human K055 cells assessed as reduction in cell viability by SRB assay.
The next experiment relates to MCF7. The experiment is described as follows: Cytotoxicity against human MCF7 cells assessed as reduction in cell viability by SRB assay.
A further experiment concerns KB. The experiment is described as follows: Cytotoxicity against human KB cells assessed as reduction in cell viability by SRB assay.
Another experiment concerns HT-29. As to the kind of experiment: Cytotoxicity against human HT-29 cells assessed as reduction in cell viability by SRB assay.
Experiment [4] in a line: Cytotoxicity against human P388 cells assessed as reduction in cell viability by SRB assay.

Each structure is given as a SMILES string.

`C=C1CC[C@@H]2[C@](C)(CO[Si](C)(C)C(C)(C)C)[C@H](OC(C)=O)CC[C@@]2(C)[C@@H]1C/C=C1/C(=O)OC[C@H]1OC(C)=O`: the concentration for half-maximal inhibition (IC50) (in general, the concentration that inhibits the measured activity by half) with A549 is 3.99 µM; in experiment [1] it was 2.41 µM; in experiment [2] it was 38.7 µM; in experiment [3], 44.3 µM; in the experiment on MCF7, 4.84 µM; in the experiment on KB, 5.05 µM. For the same molecule, the IC50 stood at 4.69 µM with HT-29 and 0.3 µM in experiment [4].

As for `C=C1[C@@H](OC(C)=O)C[C@@H]2[C@](C)(COC=O)[C@H](OC(C)=O)CC[C@@]2(C)[C@@H]1C[C@@H](Nc1ccc(Br)cc1)C1=CCOC1=O`, the concentration for half-maximal inhibition (IC50) came to 15.8 µM in the experiment on A549; 49.9 µM in experiment [1]; 25.4 µM in experiment [2]; 24.4 µM in experiment [3]; 11.4 µM in the experiment on MCF7; 24 µM in the experiment with KB. The figures for the IC50 (in the experiment on HT-29; in experiment [4]) were 13.2 µM and 4.95 µM, respectively.

With `C=C1[C@@H](OC(C)=O)C[C@@H]2[C@](C)(CO[Si](C)(C)C(C)(C)C)[C@H](OC(C)=O)CC[C@@]2(C)[C@@H]1C[C@H](C1=CCOC1=O)N1CCOCC1`, the IC50 was found to be 24.8 µM in the experiment on A549; 26.3 µM in experiment [1]; 28.3 µM in experiment [3]; 31.6 µM with MCF7; 35.7 µM in the experiment on KB; 37.6 µM in the experiment on HT-29. The IC50 in experiment [4] stood at 20.4 µM.

`C=C1[C@@H](OC(C)=O)C[C@@H]2[C@](C)(COC=O)[C@H](OC(C)=O)CC[C@@]2(C)[C@@H]1C[C@@H](Nc1ccccc1F)C1=CCOC1=O`: the concentration for half-maximal inhibition (IC50) worked out at 23.6 µM with A549; 31.6 µM in experiment [1]; 31 µM in experiment [2]; 30.3 µM in experiment [3]; 16.4 µM in the experiment with MCF7; 29 µM with KB. Also, the half-maximal inhibitory concentration (IC50) in the experiment on HT-29 turned out to be 9.76 µM; in experiment [4], 5.97 µM.

Take `C=C1[C@@H](OC(C)=O)C[C@@H]2[C@](C)(COC=O)[C@H](OC(C)=O)CC[C@@]2(C)[C@@H]1C[C@@H](Nc1ccccc1C(=O)O)C1=CCOC1=O`: the IC50 in the experiment with A549 was 45.9 µM; in experiment [1], greater than 50 µM; in experiment [2], 42.6 µM; in experiment [3] it was 40.4 µM; with MCF7 it was 30.8 µM; in the experiment on KB, 42.5 µM. Further, the figures for the 50% inhibitory concentration (IC50) (in the experiment with HT-29; in experiment [4]) were 28.7 µM and 9.11 µM, respectively.

Turning to `C=C1[C@@H](OC(C)=O)C[C@@H]2[C@](C)(COC=O)[C@H](OC(C)=O)CC[C@@]2(C)[C@@H]1C[C@@H](Nc1ccccc1)C1=CCOC1=O`, the 50% inhibitory concentration (IC50) in the experiment with A549 was found to be 25.8 µM; in experiment [1], 41 µM; in experiment [2], 39.8 µM; in experiment [3], 33.2 µM; in the experiment with MCF7, 26.2 µM; in the experiment with KB, 32.1 µM. The concentration for half-maximal inhibition (IC50) was determined as 28.8 µM in the experiment with HT-29 and 7.84 µM in experiment [4].

For the molecule `C=C1[C@@H](OC(C)=O)C[C@@H]2[C@](C)(COC=O)[C@H](OC(C)=O)CC[C@@]2(C)[C@@H]1C[C@@H](Nc1ccc(C(=O)O)cc1)C1=CCOC1=O`, the IC50 is greater than 50 µM with A549; greater than 50 µM in experiment [1]; greater than 50 µM in experiment [2]; 48.3 µM in experiment [3]; 41.6 µM with MCF7; greater than 50 µM with KB. The 50% inhibitory concentration (IC50) in the experiment with HT-29 was determined as 37.2 µM; in experiment [4], 22.2 µM.

In the case of `C=C1[C@@H](OC(C)=O)C[C@@H]2[C@](C)(CO[Si](C)(C)C(C)(C)C)[C@H](OC(C)=O)CC[C@@]2(C)[C@@H]1C[C@@H](Nc1ccc(O)cc1)C1=CCOC1=O`, the IC50 in the experiment with A549 was 5.09 µM; in experiment [1], 5 µM; in experiment [2], 9.25 µM; in experiment [3], 5.95 µM; in the experiment on MCF7 it was 5.22 µM; in the experiment with KB it was 8.35 µM. In addition, the IC50 worked out at 6.14 µM with HT-29 and 5.03 µM in experiment [4].

On to `C=C1[C@@H](OC(C)=O)C[C@@H]2[C@](C)(CO[Si](C)(C)C(C)(C)C)[C@H](OC(C)=O)CC[C@@]2(C)[C@@H]1C[C@@H](Nc1ccc(OC)cc1)C1=CCOC1=O`, for which the half-maximal inhibitory concentration (IC50) in the experiment on A549 worked out at 4.81 µM; in experiment [1], 4.56 µM; in experiment [2], 5.2 µM; in experiment [3] it was 5.6 µM; with MCF7 it was 4.28 µM; in the experiment on KB, 5.63 µM. Moreover, the IC50 with HT-29 came out at 5.37 µM; in experiment [4], 4.03 µM.

On to `C=C1[C@@H](OC(C)=O)C[C@@H]2[C@](C)(CO[Si](C)(C)C(C)(C)C)[C@H](OC(C)=O)CC[C@@]2(C)[C@@H]1C[C@@H](Nc1cccc(OC)c1)C1=CCOC1=O`, for which the half-maximal inhibitory concentration (IC50) in the experiment on A549 was 17.2 µM; in experiment [1], 39.7 µM; in experiment [2], 40.1 µM; in experiment [3], 44 µM; with MCF7, 28.1 µM; in the experiment with KB, 45.2 µM. Further, the IC50 in the experiment with HT-29 is greater than 50 µM; in experiment [4], 27.8 µM.

As for `C=C1[C@@H](OC(C)=O)C[C@@H]2[C@](C)(CO[Si](C)(C)C(C)(C)C)[C@H](OC(C)=O)CC[C@@]2(C)[C@@H]1C[C@@H](Nc1cccc2ccccc12)C1=CCOC1=O`, the 50% inhibitory concentration (IC50) with A549 came out at 4.97 µM; in experiment [1], 6.33 µM; in experiment [2] it was 15.3 µM; in experiment [3] it was 6.72 µM; in the experiment with MCF7 it was 5.77 µM; with KB it was 8.93 µM. The values for the IC50 (in the experiment on HT-29; in experiment [4]) were 15 µM and 5.74 µM, respectively.

As for `C=C1[C@@H](OC(C)=O)C[C@@H]2[C@](C)(COC=O)[C@H](OC(C)=O)CC[C@@]2(C)[C@@H]1C[C@@H](Nc1ccc(OC)cc1)C1=CCOC1=O`, the IC50 in the experiment on A549 is 28.9 µM; in experiment [1], greater than 50 µM; in experiment [2], 40.9 µM; in experiment [3], 33.2 µM; in the experiment on MCF7, 24.2 µM; in the experiment with KB, 32.7 µM. The results for the IC50 (in the experiment with HT-29; in experiment [4]) were 25.4 µM and 7.9 µM, respectively.

Regarding `C=C1[C@@H](OC(C)=O)C[C@@H]2[C@](C)(COC=O)[C@H](OC(C)=O)CC[C@@]2(C)[C@@H]1C[C@@H](Nc1ccc(F)cc1)C1=CCOC1=O`, the 50% inhibitory concentration (IC50) came out at 21.2 µM in the experiment with A549; 38.6 µM in experiment [1]; 30.2 µM in experiment [2]; 25.8 µM in experiment [3]; 12.4 µM with MCF7; 22.9 µM in the experiment with KB. Moreover, the IC50 is 20.5 µM with HT-29 and 6.31 µM in experiment [4].

Turning to `C=C1[C@@H](OC(C)=O)C[C@@H]2[C@](C)(COC=O)[C@H](OC(C)=O)CC[C@@]2(C)[C@@H]1C[C@H](C1=CCOC1=O)N1CCOCC1`, the IC50 is greater than 50 µM in the experiment on A549; 34.4 µM in experiment [1]; 31.7 µM in experiment [2]; 33.7 µM in experiment [3]; 43.6 µM with MCF7; greater than 50 µM in the experiment with KB. Also, the IC50 in the experiment with HT-29 came to 35.1 µM; in experiment [4], 29.2 µM.

Turning to `C=C1[C@@H](OC(C)=O)C[C@@H]2[C@](C)(COC=O)[C@H](OC(C)=O)CC[C@@]2(C)[C@@H]1C[C@@H](Nc1cccc2ccccc12)C1=CCOC1=O`, the half-maximal inhibitory concentration (IC50) with A549 is 35.6 µM; in experiment [1] it was greater than 50 µM; in experiment [2], 31.3 µM; in experiment [3] it was 28.8 µM; with MCF7, 9.75 µM; with KB, 32.3 µM. Also, the half-inhibitory concentration (IC50) amounted to 8.67 µM in the experiment with HT-29 and 6.49 µM in experiment [4].

With `C=C1[C@@H](OC(C)=O)C[C@@H]2[C@](C)(COC=O)[C@H](OC(C)=O)CC[C@@]2(C)[C@@H]1C/C=C1/C(=O)OC[C@H]1OC(C)=O`, the IC50 in the experiment on A549 was 19 µM; in experiment [1], 19.2 µM; in experiment [2] it was 20.8 µM; in experiment [3], 15.3 µM; with MCF7, 12.9 µM; with KB, 21.6 µM. Also, the concentration for half-maximal inhibition (IC50) in the experiment with HT-29 was determined as 8.29 µM; in experiment [4], 4.55 µM.

In the case of `C=C1[C@@H](C/C=C2/C(=O)OC[C@H]2OC(C)=O)[C@]2(C)CC[C@@H](OC(C)=O)[C@@](C)(CO[Si](C)(C)C(C)(C)C)[C@H]2C[C@@H]1O`, the IC50 with A549 is 6.85 µM; in experiment [1] it was 5.97 µM; in experiment [2], 24 µM; in experiment [3], 19.9 µM; in the experiment on MCF7, 6.96 µM; in the experiment with KB, 9.79 µM. For the same molecule, the half-inhibitory concentration (IC50) amounted to 9.31 µM with HT-29 and 0.9 µM in experiment [4].

As to `C=C1CC[C@@H]2[C@](C)(CO)[C@H](O)CC[C@@]2(C)[C@@H]1C/C=C1/C(=O)OC[C@H]1O` [ANDROGRAPHOLIDE], the IC50 in the experiment with A549 turned out to be 12.2 µM; in experiment [1] it was 45.4 µM; in experiment [2] it was 33.9 µM; in experiment [3], 30.2 µM; in the experiment with MCF7 it was 29.1 µM; with KB it was 41.5 µM. For the same molecule, the IC50 with HT-29 amounted to 10.8 µM; in experiment [4], 6.91 µM.

As to `Cc1c2ccncc2c(C)c2c1[nH]c1ccccc12` [ELLIPTECINE], the concentration for half-maximal inhibition (IC50) was determined as 2.13 µM in the experiment with A549; 2.42 µM in experiment [1]; 2.11 µM in experiment [2]; 2.04 µM in experiment [3]; 2.18 µM in the experiment with MCF7; 2.2 µM in the experiment on KB. In addition, the 50% inhibitory concentration (IC50) came out at 2.59 µM with HT-29 and 1.87 µM in experiment [4].

Consider `C=C1[C@@H](OC(C)=O)C[C@@H]2[C@](C)(COC=O)[C@H](OC(C)=O)CC[C@@]2(C)[C@@H]1C[C@@H](Nc1ccc(O)cc1)C1=CCOC1=O`, for which the IC50 turned out to be 29.1 µM in the experiment with A549; 24.2 µM in experiment [1]; 27.1 µM in experiment [2]; 28.6 µM in experiment [3]; 18.1 µM in the experiment with MCF7; 28.9 µM in the experiment on KB. The concentration for half-maximal inhibition (IC50) turned out to be 13.4 µM in the experiment on HT-29 and 4.4 µM in experiment [4].

`C=C1[C@@H](OC(C)=O)C[C@@H]2[C@](C)(CO[Si](C)(C)C(C)(C)C)[C@H](OC(C)=O)CC[C@@]2(C)[C@@H]1C[C@@H](Nc1ccc(OC)c(OC)c1)C1=CCOC1=O`: the IC50 with A549 is 4.87 µM; in experiment [1] it was 4.95 µM; in experiment [2] it was 5.15 µM; in experiment [3], 5.73 µM; with MCF7 it was 4.31 µM; in the experiment on KB, 5.8 µM. The IC50 amounted to 5.33 µM with HT-29 and 4.53 µM in experiment [4].
